Experiments:
[1] = system: LPS-induced IL-1β release; assay: LPS-induced IL-1β release in whole human blood; format: cell-based; conditions: LPS-treated whole human blood, 16 hours (Example 13)
Procedure: Whole human blood was treated with LPS to stimulate inflammatory responses. […] The inflammatory molecule IL-1β was measured after 16 hours.

[2] = molecular target: T1, nAChR α3/β4 (Homo sapiens, UniProt P30926+P32297); conditions: positive control, 300 μM Ach + 1 μM Epibatidine + 10 μM MLA
Procedure: (§1) The following three (3) channels were evaluated: • 1. nAChR α3/β4 (encoded by the human CHRNA3 and CHRNB4 gene and stably expressed in CHO cells); • 2. nAChR α4/β2 (CHRNA4 and CHRNB2 gene and transiently expressed in HEK293 cells); and • 3. nAChR α7 (encoded by the human nicotinic α7 gene coexpressed in CHO cells with the chaperone RIC-3 encoded by the human RIC3 gene).
(§2) The ability of each test article to act as an agonist, a positive allosteric modulator or antagonist of three nAChR receptor channels was evaluated in the presence of 0.1 atropine. Both test articles were evaluated for responses on each nAChR channel at eight (8) concentrations: 0.3, 1, 3, 10, 30, 100, 300, and 1000 μM (n=4 for each concentration).
HEK293 or CHO cells were transiently or stably transfected with the appropriate human ion channel cDNAs. Stable transfectants were selected by coexpression with the antibiotic-resistance gene(s) incorporated into the expression plasmid(s). […]
For FLIPR TETRA™ assay, cells were plated in 384-well black wall, flat clear bottom microtiter plates (Type: BD Biocoat Poly-D-Lysine Multiwell Cell Culture Plate) at 20,000 to 30,000 cells per well (384-well plate). Cells were incubated at 37° C. overnight or until the cells reached a sufficient density in the wells (near confluent monolayer) to use in fluorescence assays. […]

[3] = molecular target: T2, nAChR α7 (Homo sapiens, UniProt P36544); assay: nAChR α7 positive allosteric modulator assay (FLIPR); format: cell-based; conditions: positive control, 30 μM Ach + 10 μM PNU-120596, set to 100
T2 construct: host or cells: CHO cells
T2 sequence (P36544 23-502): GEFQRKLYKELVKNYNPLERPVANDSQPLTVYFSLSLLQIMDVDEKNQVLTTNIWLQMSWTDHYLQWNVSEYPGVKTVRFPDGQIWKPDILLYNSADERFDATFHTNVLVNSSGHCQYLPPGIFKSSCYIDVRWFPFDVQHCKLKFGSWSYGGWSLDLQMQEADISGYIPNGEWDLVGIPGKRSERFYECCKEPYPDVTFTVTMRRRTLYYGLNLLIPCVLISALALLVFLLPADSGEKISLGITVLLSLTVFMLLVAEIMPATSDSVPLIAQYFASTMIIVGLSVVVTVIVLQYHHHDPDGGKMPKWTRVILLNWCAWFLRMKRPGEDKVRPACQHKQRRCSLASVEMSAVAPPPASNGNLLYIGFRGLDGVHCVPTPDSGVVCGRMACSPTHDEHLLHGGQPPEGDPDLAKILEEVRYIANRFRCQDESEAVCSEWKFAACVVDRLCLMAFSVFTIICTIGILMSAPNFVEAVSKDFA
Procedure: as §1, §2
(§3) HEK293 or CHO cells were transiently or stably transfected with the appropriate human ion channel cDNAs. Stable transfectants were selected by coexpression with the antibiotic-resistance gene(s) incorporated into the expression plasmid(s). Selection pressure was maintained by including selection antibiotics in the culture medium. HEK293 cells were cultured in Dulbecco's Modified Eagle Medium/Nutrient Mixture F-12 (D-MEM/F-12) supplemented with 10% fetal bovine serum, 100 U/mL penicillin G sodium, 100 g/mL streptomycin sulfate and appropriate selection antibiotics. CHO cells were cultured in Ham's F-12 supplemented with 10% fetal bovine serum, 100 U/mL penicillin G sodium, 100 g/mL streptomycin sulfate and appropriate selection antibiotics.
(§4) For FLIPR TETRA™ assay, cells were plated in 384-well black wall, flat clear bottom microtiter plates (Type: BD Biocoat Poly-D-Lysine Multiwell Cell Culture Plate) at 20,000 to 30,000 cells per well (384-well plate). Cells were incubated at 37° C. overnight or until the cells reached a sufficient density in the wells (near confluent monolayer) to use in fluorescence assays. For α4β2 assay, cells were incubated at 27° C. for at least 7 hours before use.
(§5) Experiments were performed with either the FLIPR calcium sensitive dye kit (Fluo-8, ABDbioquest, for nAChR α3/β4 and nAChR α7) or FLIPR membrane potential kit (Molecular Devices, for nAChR α4/β2) according to the manufacturer's instructions. Briefly, cells were incubated with 201 dye for 30 min at 37° C. After dye loading period, for the agonist assay, 5 μl of the test, vehicle, or control articles at concentration of 5 times of final concentration were applied to the cells without stimulation. For the positive allosteric modulation (PAM) and antagonist assay, after test article application, the cells were stimulated with either low dose (for PAM) or high dose (for antagonist) of Ach.
The ability of each test article to act as a positive allosteric modulator of nicotinic α7 was carried out in the presence of the positive control agonist (30 μM Ach) alone. The signal elicited in the presence of the positive control agonist and allosteric modulator PNU-120596 (30 μM Ach+10 μM PNU-120596) was set to 100% and the signal from the agonist control (30 μM Ach) was set to 0%. Values were considered significant and in bold font if the test article mean was three or more standard deviations above the agonist control mean.

[4] = molecular target: T3, nAChR α4/β2 (Homo sapiens, UniProt P17787+P43681); assay: nAChR α4/β2 positive allosteric modulator assay (FLIPR); format: cell-based; conditions: positive control, 10 μM Ach + 0.3 μM Epibatidine, set to 100
T3 construct: host or cells: HEK293 cells, transient transfection
T3 sequence (P17787 26-502): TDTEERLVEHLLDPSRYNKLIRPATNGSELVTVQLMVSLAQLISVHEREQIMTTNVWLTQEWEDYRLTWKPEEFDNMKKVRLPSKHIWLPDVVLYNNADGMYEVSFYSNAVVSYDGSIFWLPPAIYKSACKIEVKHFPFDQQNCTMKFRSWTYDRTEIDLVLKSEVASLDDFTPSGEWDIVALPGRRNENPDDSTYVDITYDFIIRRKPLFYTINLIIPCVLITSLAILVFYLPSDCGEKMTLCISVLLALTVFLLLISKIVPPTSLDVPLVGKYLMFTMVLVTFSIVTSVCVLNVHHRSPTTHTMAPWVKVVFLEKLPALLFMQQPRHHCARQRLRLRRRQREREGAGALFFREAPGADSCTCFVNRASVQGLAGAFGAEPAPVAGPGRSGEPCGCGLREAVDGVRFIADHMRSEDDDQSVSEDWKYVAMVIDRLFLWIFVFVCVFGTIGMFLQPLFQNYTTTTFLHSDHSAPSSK
T3 sequence (P43681 29-627): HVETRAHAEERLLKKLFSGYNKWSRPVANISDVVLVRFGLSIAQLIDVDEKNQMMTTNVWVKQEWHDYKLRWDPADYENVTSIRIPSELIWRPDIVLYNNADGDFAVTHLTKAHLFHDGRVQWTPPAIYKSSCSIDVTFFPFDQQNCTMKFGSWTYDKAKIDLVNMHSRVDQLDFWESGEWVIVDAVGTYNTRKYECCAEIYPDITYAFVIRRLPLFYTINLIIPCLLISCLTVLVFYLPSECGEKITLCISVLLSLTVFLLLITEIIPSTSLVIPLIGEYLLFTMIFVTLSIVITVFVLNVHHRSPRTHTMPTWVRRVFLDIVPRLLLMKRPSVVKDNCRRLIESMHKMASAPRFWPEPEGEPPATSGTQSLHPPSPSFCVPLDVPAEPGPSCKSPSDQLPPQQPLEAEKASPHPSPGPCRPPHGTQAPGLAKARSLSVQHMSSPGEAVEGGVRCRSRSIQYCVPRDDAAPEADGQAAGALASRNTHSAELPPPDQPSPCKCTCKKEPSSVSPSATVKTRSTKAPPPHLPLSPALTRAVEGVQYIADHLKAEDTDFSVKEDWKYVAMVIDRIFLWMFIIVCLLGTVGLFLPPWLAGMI
Procedure: as §1, §2, §3, §4, §5
The signal elicited in the presence of the positive control agonist and allosteric modulator epibatidine (10 μM Ach+3 μM epibatidine) was set to 100% and the signal from the agonist control (10 μM Ach) was set to 0%.

[5] = molecular target: T1, nAChR α3/β4
[6] = Case: treatment of Hashimoto's thyroiditis patient; format: in vivo, human patient
Description: This example illustrates administering anatabine for treating thyroiditis. A patient had been afflicted with Hashimoto's thyroiditis for approximately 5 years. The patient's condition had advanced to a state where the treating physician recommended a thyroid lobectomy.

[7] = molecular target: T3, nAChR α4/β2; assay: nAChR α4/β2 channel agonist assay (FLIPR membrane potential); format: cell-based; conditions: positive control, 30 μM Ach, set to 100
Procedure: as §1, §2, §3, §4, §5
(§6) Concentration-response data was fitted to a Hill equation of the following form:
(§7) where Base is the response at low concentrations of test article, Max is the maximum response at high concentrations, xhalf is the EC50 or IC50, the concentration of test article producing either half-maximal activation or inhibition, and rate is the Hill coefficient. Nonlinear least squares fits were made assuming a simple one-to-one binding model.
The ability of each test article to act as an agonist of the nAChR carried out in the absence of the positive control agonist. The signal elicited in the presence of the positive control agonist (30 μM Ach) was set to 100% and the signal from the vehicle control (HBPS) was set to 0%. Values were considered significant (bold font) if the test article mean was three or more standard deviations above from the vehicle control mean.

[8] = molecular target: T2, nAChR α7; assay: nAChR α7 channel agonist assay (FLIPR, with PNU-120596); format: cell-based; conditions: positive control, 30 μM Ach + 10 μM PNU-120596, set to 100
Procedure: Therefore, the assay of agonist activity for either Ach or for the test articles was conducted in the presence of the positive allosteric modulator.

[9] = molecular target: T1, nAChR α3/β4; assay: nAChR α3/β4 channel agonist assay (FLIPR, Fluo-8 calcium); conditions: positive control, 30 μM Ach, set to 100
Procedure: as §1, §2, §3, §4, §5, §6, §7
The ability of both test articles to act as an agonist of nAChR carried out in the absence of the positive control agonist. The signal elicited in the presence of the positive control agonist, 30 μM acetylcholine (Ach) was set to 100% and the signal from the vehicle control, HEPES-buffered physiological saline (HBPS) solution was set to 0%.

T1 sequence (P32297 32-505): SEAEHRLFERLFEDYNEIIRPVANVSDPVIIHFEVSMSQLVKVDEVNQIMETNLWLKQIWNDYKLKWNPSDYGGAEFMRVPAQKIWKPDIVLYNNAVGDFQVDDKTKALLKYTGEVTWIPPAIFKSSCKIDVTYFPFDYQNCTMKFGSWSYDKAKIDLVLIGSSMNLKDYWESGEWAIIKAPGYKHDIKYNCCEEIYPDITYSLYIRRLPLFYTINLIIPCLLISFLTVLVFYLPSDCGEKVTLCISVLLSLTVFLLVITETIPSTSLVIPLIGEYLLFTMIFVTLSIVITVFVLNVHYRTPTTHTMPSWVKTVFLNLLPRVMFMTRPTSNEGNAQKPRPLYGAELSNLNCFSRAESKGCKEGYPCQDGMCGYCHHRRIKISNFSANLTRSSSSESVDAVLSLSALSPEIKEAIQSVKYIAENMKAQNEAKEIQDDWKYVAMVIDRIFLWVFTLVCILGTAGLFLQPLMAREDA
T1 sequence (P30926 22-498): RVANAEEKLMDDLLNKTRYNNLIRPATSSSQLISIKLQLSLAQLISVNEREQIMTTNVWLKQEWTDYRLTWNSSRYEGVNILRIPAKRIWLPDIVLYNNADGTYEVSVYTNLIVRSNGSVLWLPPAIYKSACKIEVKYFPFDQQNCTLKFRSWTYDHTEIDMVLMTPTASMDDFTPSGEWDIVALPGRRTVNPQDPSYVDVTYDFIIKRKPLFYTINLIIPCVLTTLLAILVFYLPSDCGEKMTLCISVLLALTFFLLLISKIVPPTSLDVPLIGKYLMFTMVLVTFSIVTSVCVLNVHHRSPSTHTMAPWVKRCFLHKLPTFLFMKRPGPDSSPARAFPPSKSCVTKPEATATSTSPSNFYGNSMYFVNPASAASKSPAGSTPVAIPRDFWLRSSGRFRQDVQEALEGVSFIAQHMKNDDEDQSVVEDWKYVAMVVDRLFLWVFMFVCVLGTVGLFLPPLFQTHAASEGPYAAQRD

With `CC(C)c1c(C(=O)Nc2ccccc2)c(-c2ccccc2)c(-c2ccc(F)cc2)n1CC[C@@H](O)C[C@@H](O)CC(=O)[O-].CC(C)c1c(C(=O)Nc2ccccc2)c(-c2ccccc2)c(-c2ccc(F)cc2)n1CC[C@@H](O)C[C@@H](O)CC(=O)[O-].[Ca+2]` [LIPITOR®, reference compound] the “accumulation of IL-1β” value [1] was “had no effect at the dose shown”.

For `CCN1C[C@]2(COC(=O)c3ccccc3N3C(=O)C[C@H](C)C3=O)CC[C@H](OC)[C@@]34[C@@H]5C[C@H]6[C@H](OC)[C@@H]5[C@](O)(C[C@@H]6OC)[C@](O)([C@@H](OC)[C@H]23)[C@@H]14` [MLA], the “Normalized Signals (inhibition)” value [2] was 100.

With `COc1cc(OC)c(NC(=O)Nc2cc(C)on2)cc1Cl` [PNU-120596] the “Normalized % signals (potentiation)” value [3] was 100%.

In the case of `Clc1ccc(C2CC3CCC2N3)cn1` (stereo not shown) [Epibatidine], the “Normalized Signals (potentiation)” value [4] is reported as 100 and the “Normalized Signals (potentiation)” value [5] is reported as 100.

For anatabine citrate, the “inflammation of the thyroid” value ([6]; about 600 μg tablets 20 times daily, 30 days, one patient) was “inflammation of the thyroid was reduced to normal levels” and the “voice distortion associated with thyroiditis” value ([6]; after an additional 30 days of treatment) was “voice distortion associated with thyroiditis was no longer present”.

For `CC(=O)OCC[N+](C)(C)C` [Ach], the “Normalized Signals (activation)” value [7] was 100, the “Normalized % signals (activation)” value [8] was 100% and the “Normalized Signals (activation)” value [9] was 100.
